Assay results taken from patent publication US10952432B2, “Cannabidiol compositions and uses thereof” (PHARMOTECH SA, priority 2016, dated 2021).

What was measured:
CB2 receptors = CB2 receptors (Homo sapiens, UniProt P34972); settings: compared with THC; cited from earlier work
[1] = system: methicillin-resistant Staphylococcus aureus (MRSA) strains; settings: Appendino et al., 2008; cited from earlier work
[2] = system: Pseudomonas aeruginosa ATCC 27853; assay: Biofilm formation, crystal violet staining; format: cell-based
Experimental: Overnight pre-cultures of Pseudomonas aeruginosa ATCC 27853 strain were diluted to an OD600 (optical density measured at a wavelength of 600 nm) of 0.1 in 2 ml of LB (lysogeny broth) medium into polypropylene tubes. […] Planktonic cells were removed by washing once with distilled water and biofilms were stained with crystal violet (CV, 1% in water) for 30 minutes. CV was discarded and tubes were rinsed twice with water to remove excess of dye. The stained biofilms were re-suspended in 33% acetic acid and their density was evaluated by measuring the OD600 of the suspensions normalized for bacterial density.

[3] = system: elastase produced by P. aeruginosa PAOW1(PT5); assay: Elastase production measured by Elastin Congo Red enzymatic activity; format: cell-based, Pseudomonas aeruginosa; settings: CBD 500 μg/ml, overnight culture of wt strain, absorption at 495 nm normalized to cell density
Experimental: Elastase production was measured in two bacterial strains: Pseudomonas aeruginosa PAOW1(PT5) that is a wild type (wt) and Pseudomonas aeruginosa ΔlasIΔrhlI that is a mutant for quorum sensing signaling that has reduced production/expression of elastase due to the inhibition of the quorum sensing system. […] Insoluble ECR was removed by centrifugation and the absorption of the supernatant was measured at 495 nm and normalized according to cell density.

Sequence of CB2 receptors (P34972 whole entry): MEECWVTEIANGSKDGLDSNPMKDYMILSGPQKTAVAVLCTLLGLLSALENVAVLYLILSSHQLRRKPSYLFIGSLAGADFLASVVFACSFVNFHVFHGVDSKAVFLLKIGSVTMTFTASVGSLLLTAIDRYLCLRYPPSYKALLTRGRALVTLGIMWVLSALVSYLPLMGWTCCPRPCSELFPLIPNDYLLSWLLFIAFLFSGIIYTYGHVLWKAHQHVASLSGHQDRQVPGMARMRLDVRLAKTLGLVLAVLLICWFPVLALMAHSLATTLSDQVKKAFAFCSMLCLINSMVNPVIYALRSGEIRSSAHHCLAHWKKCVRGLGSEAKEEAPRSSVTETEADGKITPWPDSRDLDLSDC

SMILES	affinity for CB2 receptors (CB2 receptors)	activity against a variety of MRSA strains [1]	reduction of biofilm formation by a factor, as compared to control without CBD ([2]; CBD 1.9 μg/ml to 31.25 μg/ml, 12 h at 37° C., LB medium, OD600 normalized for bacterial density)	inhibitory effect on biofilm formation at higher concentration ([2]; higher concentration of CBD (62.5 and 125 μg/ml tested), probably due to reduced solubility in culture medium)	reduction of the production of elastase as compared to control [3]
C=C(C)[C@@H]1CCC(C)=C[C@H]1c1c(O)cc(CCCCC)cc1O [CBD, 2-[(1R,6R)-6-isopropenyl-3-methylcyclohex-2-en-1-yl]-5-pentylbenzene-1,3-diol]	very low affinity	having activity	about 2	inhibitory effect on biofilm formation is reduced	about 30%
C=C(C)[C@@H]1CCC(C)=C[C@H]1c1c(O)cc(O)cc1CCCCC [abn-CBD, reference compound]		having activity			
